# Measured values taken from US6635629B2, “3-nitrogen-6,7-dioxygen steroids and uses related thereto” (Inflazyme Pharmaceuticals Ltd., priority 2000, dated 2003).
# Key:
# [1] = system: sensitized Brown Norway rats; assay: Ovalbumin-induced accumulation of inflammatory cells in lung lavage fluid of sensitized Brown Norway rats; type: in vivo, rat; settings: p.o.
# Method: The ability of a compound to inhibit the allergen-induced accumulation of inflammatory cells such as eosinophils and neutrophils in the lavage fluid obtained from sensitized animals is indicative of that compound's anti-asthma activity. […] The test is conducted as follows.
# Male Brown Norway rats are sensitized to ovalbumin by single intraperitoneal injection of 1 mg ovalbumin adsorbed to 100 mg A(OH)3 (alum) in 1 ml sterile saline (saline control rats receive only sterile saline) on day 1, and allowed to sensitize until day 21. […] Rats are challenged with 0.5% ovalbumin in saline generated using a Devillbis nebulizer for 60 min on day 21.
# Forty-eight hrs after challenge, animals are sacrificed with an overdose of intraperitoneally-delivered sodium pentobarbitol and the lungs are lavaged with cold 2×7 ml phosphate buffered saline. The recovered lavage fluid is placed on ice. The bronchoalveolar lavage fluid is centrifuged and the supernatant removed. The pellet is resuspended in phosphate buffered saline at 4° C. Cytospins are prepared and stained for differentiation and enumeration of cell types.
# Test compound was administered in 300 μl corn oil (Tables 7 and 8) or water (Table 9), which were used as vehicles. Control animals received 300 μl corn oil or water alone, i.e., no drug. […] A negative value in Table 7, 8, or 9 indicates an exacerbation of the effect over the control animal.
# [2] = Pharmacokinetics in the rat; type: in vivo; settings: plasma; for bioavailability: po
# [3] = Pharmacokinetics in the monkey; type: in vivo; settings: plasma; for bioavailability: po
# [4] = physchem; settings: water
# [5] = system: mouse ear edema; assay: Irritant-induced (phorbol 12-myristate 13-acetate) mouse ear edema; type: in vivo; settings: 15 mg/kg orally in 45% β-cyclodextrin in saline; 3 hours after PMA; compared to control animals
# Method: A number of mice are uniquely identified by placing a mark with an indelible marker on their tail. Mice are dosed orally with 15 mg/kg test compound in 100 μl of 45% β-cyclodextrin in saline. Mice are briefly anaesthesized with 2% halothane, and 2 μg of phorbol 12-myristate 13-acetate in 25 μl of acetone is applied to the inner and outer sides of the left ear of the mouse. Acetone is applied to the right ear of the mouse in the same manner to serve as a vehicle control. Control animals receive the same treatment but without any test compound. After 3 hours, mice are sacrificed by cervical dislocation, and a standard sized biopsy is excised from the ears and weighed to the nearest 1/10th of a mg. Data are analyzed by taking the difference of each left ear from the right ear, and then calculating the % inhibition of edema by (((mean Rx/mean irritant))×100)-100.
# For example, compound 83 inhibits irritant-induced mouse ear edema by 38% compared to control animals.
# [6] = Metabolic stability in human liver S9 fractions; type: in vitro ADME; settings: human, 10 μM, pH 7
# Text: The therapeutic effectiveness of a test compound can be often directly related to its metabolic stability in vivo. The majority of known, marketed drugs are metabolized by a group of enzymes known as P450 enzymes. The S9 fraction of human liver contains all the P450 enzymes and also cytoplasmic enzymes that may be involved in the metabolism of new chemical entities. Metabolism in vitro using human S9 fractions is a standard assay to evaluate relative metabolic stability of new compounds. The test is performed as follows.
# Reagents are thawed on ice and combined to make up a Master Mix as follows: Potassium phosphate (100 mM, pH 7), G6P (0.25 mM), G6PDH (2 U/ml), NADPH (1 mM), UDP (0.25 mM), APPS (0.25 mM), and S9 fraction (2 mg/ml). A volume of 498 μl of the Master mix is dispensed into each microcentrifuge tube. A volume of 2 μl of 2.5 mM test compound (final concentration of 10 μM) is dispensed into the center of the lid of the appropriate tube, and the lids gently closed to prevent mixing. Synchronous combination of test compound and master mix is achieved by simultaneous ten times inversion of the tubes, which are then incubated at 37° C. and shaken at 150 rpm for the appropriate incubation times. While incubation is in progress, all 0 time samples are mixed individually by three times inversion followed by the immediate addition of 500 μl ice cold acetonitrile with three times inversion to stop the reaction. Immediately after each 15 minutes and 30 minutes incubation is complete, ice cold acetonitrile is added to each tube and the tubes mixed by three times inversion. All sample tubes are incubated at −80° C. for a minimum of 15 minutes, thawed and remixed by inversion. Aliquots of 650 μl are transferred to Chromatographic Specialties micro-spin filter system tubes (0.2 μm nylon membrane, C618505) and centrifuged at 13,000 rpm for 48 seconds. The sample filtrates are stored at −80° C.
# Sample filtrates are analyzed on LCMS, and percent remaining after 15 and 30 minute incubation is calculated relative to the 0 minute incubation.
# The metabolic stability of various compounds are summarized in Table 10 as the percent remaining after 15 or 30 minutes incubation with human liver S9 fractions.
# [7] = system: rat mast cell line (RBL-2H3); assay: Antigen-induced release of hexosaminidase from a rat mast cell line (RBL-2H3); type: cell-based; settings: inhibition of DNP-HSA antigen-induced hexosaminidase release; tested at 0.3, 3, 10 and 30 μM; read-out: Hex IC50
# Method: The anti-allergic effects of a compound of the present invention was evaluated by measuring its effect on antigen-induced secretion of hexosaminidase from a passively sensitized rat mast cell line. The ability of a test compound to inhibit the release of mast cell granule contents, e.g., histamine and hexosaminidase, is indicative of the anti-allergy and/or anti-asthma activity of the compound. Hexosaminidase is released from the mast cell granule along with histamine and other mediators during antigen challenge. The test is performed as follows.
# RBL-2H3 cells are grown in culture and passively sensitized for 1 hour at 37° C. to dinitrophenol (DNP) using anti-human-DNP (IgE). Cells are incubated with test compound for 30 minutes at 37° C. and stimulated with 0.5 μg/ml DNP-HSA (antigen) for 30 minutes. Aliquots of the supernatant are removed and used to measure the amount of hexosaminidase released during challenge with the antigen. […] The effect of each test compound is determined as a percentage of the antigen-induced response (minus background release) obtained in the presence of DMSO alone. These values are used to determine the degrees of inhibition of antigen-induced hexosaminidase release from the cells.
# [8] = system: Jurkat clone E6.1 cells; assay: Antigen-induced (anti-CD3 mAb) calcium flux in Jurkat clone E6.1 cells; type: cell-based; settings: 20 μM; anti-CD3 mAb 4 μg/mL; Fura 2AM
# Text: Elevation of cytoplasmic calcium concentration is a common and crucial event which follows the activation of many types of cell surface receptors. Increases in intracellular calcium that occur following agonist activation of inositol lipid hydrolysis are the results of calcium release from the endoplasmic reticulum and the influx of calcium through the plasma membrane. Increases in cytosolic calcium concentration are involved in many important cellular responses in the inflammatory process including adhesion, motility, gene expression, proliferation, and degranulation. Changes in intracellular calcium centrations can affect both short and long term cellular responses. An assay method to evaluate a test compound's impact on calcium flux is provided as follows.
# The resulting supernatants are discarded and each pellet is washed in 10 mL HBSS. Cell suspensions are accumulated and centrifuged for 5 minutes at 900 RPM to form a cell pellet. The resulting supernatant is discarded and the pellet is resuspended in HBSS at 1×10^7 cells/mL. The cell suspension is transferred to a 20 mm petri dish and incubated at 37° C., 5% CO2 for 20 minutes.
# One volume of Fura 2AM is mixed to one volume of detergent Pluronic F127. Cells are labeled with 4 μL of probe solution to each mL of cell suspension. The petri dish is wrapped in aluminum foil to protect from light and placed on a plate shaker for 30 minutes at room temperature.
# The following steps are done in the laminar flow hood with the fluorescent lights turned off. The petri dish is removed from the shaker and the labeled cell suspension is transferred to a 15 mL conical tube and washed twice with HBSS as above. The cell pellet is resuspended in 12 mL HBSS and left wrapped in foil for 30 minutes at room temperature. The labeled cell suspension is aliquoted (100 μL/well) into a Dynex 96 well white opaque tissue culture plate. […] Selected compounds were tested for dose related activity. Test samples and activator (anti—CD3 mAb at final concentration of 4 μg/mL, PharMingen) are added manually (50 μL), such that the minimum time to acquire the first data point after stimulation is approximately 30 seconds. The calcium influx response to anti-CD3 mAb is measured as an “end point” assay. The entire plate is read in 100 seconds using a kinetic of 1 second per well.
# The plate is read before the addition of anti-CD3 to monitor non-specific effect of samples/drugs. Fluorescence emission is measured at 510 nm with excitation alternating between 340 and 380 every second using an excitation/emission filter pair. Data from these dual wavelengths are represented as a ratio of 2 excitations wavelengths. This ratio is independent of intracellular dye and cell concentrations, enabling real comparison between experiments.
# [9] = 0.03 mg/kg, 4 days qd, water vehicle
# [10] = 0.1 mg/kg, 4 days qd, water vehicle
# [11] = 0.3 mg/kg, 4 days qd, water vehicle
# [12] = 1 mg/kg, 4 days qd, water vehicle
# [13] = 5 mg/kg/day for 4 days, corn oil vehicle, relative to control animals
SMILES,"% inhibition of eosinophils [1, 10] [%]","% inhibition of lymphocytes [1, 10] [%]","% inhibition of neutrophils [1, 10] [%]","% inhibition of eosinophils [1, 11] [%]","% inhibition of lymphocytes [1, 11] [%]","% inhibition of neutrophils [1, 11] [%]","% inhibition of eosinophils [1, 12] [%]","% inhibition of lymphocytes [1, 12] [%]","% inhibition of neutrophils [1, 12] [%]","% inhibition of eosinophils [1, 13] [%]","% inhibition of lymphocytes [1, 13] [%]","% inhibition of neutrophils [1, 13] [%]",half-life [2] [h],bioavailability [2] [%],half-life [3] [h],bioavailability [3] [%],solubility ([4]; solubility at room temperature) [mg/mL],also measured
C/C=C1/CCC2C3C(CC[C@]12C)[C@@]1(C)CC[C@H](N)CC1[C@@H](O)[C@@H]3O (stereo partly shown) [Compound 28],29,50,−10,71,85,66,60,70,41,85,124,87,7.5,~100,15,25 to 30,~30,"% inhibition of eosinophils [1, 9]: 5%; % inhibition of lymphocytes [1, 9]: −5%; % inhibition of neutrophils [1, 9]: −26%"
C/C=C1/CCC2C3C(CC[C@]12C)[C@@]1(C)CC[C@H](N)CC1[C@@H](O)[C@@H]3O (stereo partly shown) [Compound 83],–,–,–,–,–,–,–,–,–,67,38,34,–,–,–,–,–,"inhibition of irritant-induced mouse ear edema [5]: 38%; % remaining after 15 min ([6]; s9, 15 min): 92 ± 19%; % remaining after 30 min ([6]; s9, 30 min): 91 ± 21%"
C=C1CCC2C3C(CC[C@]12C)[C@@]1(C)CC[C@H](N)CC1[C@@H](O)[C@@H]3O (stereo partly shown) [Compound 89],35,2,25,80,70,72,71,6,66,57,64,60,7.5,~100,15,25 to 30,~30,IC50 [7]: 11.5 µM; Calcium (% inhibition at 20 μM) [8]: 15.0%; solubility ([4]; solubility in water): > 100 mg/mL
